Assay results: US7094909B2, “HIV protease inhibitors, compositions containing the same, their pharmaceutical uses and materials for their synthesis” (priority 2001, dated 2006)
Where two headings read alike, the source gives them in different places.

Assays:
461, 84V, 90M virus = assay: Phenotypic susceptibility assay at Virologic, Inc.; type: cell-based, HIV-1; conditions: Human immunodeficiency virus 1, read-out: EC50 or IC50 (mM), values with asterisk (IC50)
Protocol: Compounds were tested in phenotypic susceptibility assays at Virologic, Inc., (See Petropoulos C. J., Parkin N. T., Limoli K. L., Lie Y. S., Wrin T., Huang W., Tian H., Smith D., Winslow G. A., Capon D J, Whitcomb J M. 2000, “A novel phenotypic drug susceptibility assay for human immunodeficiency virus type 1,” Antimicrob Agents Chemother 44(4):920–928) or using the assay described here. MT-2 cells were infected with either HIV-1 NL4-3 or HIV-1 NL4-3([…]) and incubated in the presence of serial 0.5 log dilutions of test compounds. Three days later, culture supernatants were collected and virus production, as determined by p24 ELISA, was assayed. Percent inhibition was calculated as p24 concentration in compound-treated samples as compared to infected, compound-free controls. Inhibition of viral replication is determined by measuring reduction in HIV p24 present in the culture supernatant, using a Beckman-Coulter p24HIV-1 Ag EIA kit and following the supplied protocol. Absorbance is read on a MRX microplate reader (Dynex Technologies). The EC50 was calculated as the concentration of compound that effected a decrease in the p24 production by infected, compound-treated cells to 50% of that produced by infected, compound-free cells.

[1] = tested on: HIV-1 (HIV-1 RF, HIV-1 NL4-3) in CEM-SS / MT-2 cells; assay: Cytopathic effect (CPE) inhibition assay (XTT/MTT dye reduction); type: cell-based
How it was run: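 CEM-SS or MT-2 cells were infected with HIV-1 RF or NL4-3 (moi 0.025–0.819) and plated at 2×10^4 cells/well with half-log compound dilutions for 6 days. Viability was read by XTT formazan at 450 nm after 4 h. EC50 restores formazan to 50% of uninfected untreated cells, CC50 halves it in uninfected cells, and TI = CC50/EC50.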

[2] = biological target: T1, HIV-1 protease (Q7S mutant form) (Human immunodeficiency virus type 1 group M subtype B, UniProt P04585, Q495S); assay: HIV-1 Protease RET assay; type: biochemical; conditions: Ave. Ki (nM), RET assay, Q7S enzyme, Morrison tight binding fit
T1 construct: made in house
How it was run: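 Q7S HIV-1 protease, refolded from urea, 2 nM active dimer with 5 μM EDANS/DABCYL peptide cleaved at Tyr-Pro; fluorescence 340/490 nm. 12 min at 37 °C in 0.1M sodium acetate pH 4.8, 1M NaCl, 10% DMSO. Ki from Morrison tight-binding fit.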

[3] = tested on: HIV-1 NL4-3 or HIV-1 NL4-3(I84V/L90M); assay: Susceptibility assay, p24 ELISA in infected MT-2 cells; type: cell-based; conditions: Human immunodeficiency virus 1, NL43, MT2, read-out: EC50 or IC50 (mM), values without asterisk (EC50)
How it was run: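 MT-2 cells infected with HIV-1 NL4-3 or the I84V/L90M mutant were incubated with 0.5 log serial compound dilutions for three days. Supernatant p24 was quantified by ELISA. EC50 is the concentration reducing p24 to 50% of infected, compound-free controls.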

[4] = Human immunodeficiency virus 1, NL43, read-out: Ave CPE EC50
[5] = Human immunodeficiency virus 1, NL43, read-out: Ave CPE EC50 (mM)

SMILES | IC50 (461, 84V, 90M virus) [µM] | EC50 [1, 4] [µM] | Ki [2] [nM] | EC50 [1, 5] [µM] | EC50 [3] [mM]
Cc1cnccc1CNC(=O)[C@H]1N(C(=O)[C@@H](O)[C@H](Cc2ccccc2)NC(=O)c2cccc(O)c2C)CSC1(C)C [Example A10, 3-[2-Hydroxy-3-(3-hydroxy-2-methyl-benzoylamino)-4-phenyl-butyryl]-5,5-dimethyl-thiazolidine-4-carboxylic acid (3-methyl-pyridin4-ylmethyl)-amide] | 0.118 | 0.104 | < 0.1 | – | –
Cc1c(O)cccc1C(=O)N[C@@H](Cc1ccccc1)[C@H](O)C(=O)N1CSC(C)(C)[C@H]1C(=O)NCC1CCCCC1 [Example A13, 3-[2-Hydroxy-3-(3-hydroxy-2-methyl-benzoylamino)-4-phenyl-butyryl]-5,5-dimethyl-thiiazolidine-4-carboxylic acid cyclohexylmethyl-amide] | 0.921 | 0.495 | 3.4 | – | –
Cc1c(O)cccc1C(=O)N[C@@H](Cc1ccccc1)[C@H](O)C(=O)N1CSC(C)(C)[C@H]1C(=O)NCc1ccc2c(c1)OCO2 [Example A14, 3-((2S,3S)-2-Hydroxy-3-{[1-(3-hydroxy-2-methyl-phenyl)-methanoyl]-amino}-4-phenyl-butanoyl)-5,5-dimethyl-thiazolidine-4-carboxylic acid (benzo[1,3]dioxol-5-ylmethyl)-amide] | 0.226 | – | 0.32 | 0.061 | –
Cc1c(O)cccc1C(=O)N[C@@H](Cc1ccccc1)[C@H](O)C(=O)N1CSC(C)(C)[C@H]1C(=O)NCc1ccco1 [Example A15, (R)-3-((2S,3S)-2-Hydroxy-3-{[1-(3-hydroxy-2-methyl-phenyl)-methanoyl]-amino}-4-phenyl-butanoyl)-5,5-dimethyl-thiazolidine-4-carboxylic acid (furan-2-ylmethyl)-amide] | 0.057 | 0.055 | < 0.1 | – | –
Cc1ccc(F)cc1CNC(=O)[C@H]1N(C(=O)[C@@H](O)[C@H](Cc2ccccc2)NC(=O)c2cccc(O)c2C)CSC12CCCC2 [Example C36, (R)-3-((2S,3S)-2-Hydroxy-3-{[1-(3-hydroxy-2-methyl-phenyl)-methanoyl]-amino}-4-phenyl-butanoyl)-1-thia-3-aza-spiro[4.4]nonane-4-carboxylic acid 5-fluoro-2-methyl-benzylamide] | – | 0.05 | < 0.1 | – | 0.000666
Cc1c(O)cccc1C(=O)N[C@@H](Cc1ccccc1)[C@H](O)C(=O)N1CSC2(CCCC2)[C@H]1C(=O)N[C@H]1CCCc2ccccc21 [Example C37, (R)-3-((2S,3S)-2-Hydroxy-3-{[1-(3-hydroxy-2-methyl-phenyl)-methanoyl]-amino}-4-phenyl-butanoyl)-1-thia-3-aza-spiro[4.4]nonane-4-carboxylic acid (1,2,3,4-tetrahydro-naphthalen-1-yl)-amide] | – | 0.027 | 0.61 | – | 0.00129
CCCNC(=O)[C@H]1N(C(=O)[C@@H](O)[C@H](Cc2ccccc2)NC(=O)c2cccc(O)c2C)CSC12CCC2 [Example C38, (R)-7-((2S,3S)-2-Hydroxy-3-{[1-(3-hydroxy-2-methyl-phenyl)-methanoyl]-amino}-4-phenyl-butanoyl)-5-thia-7-aza-spiro[3.4]octane-8-carboxylic acid propylamide] | – | 0.042 | < 0.1 | – | 0.00131
Cc1c(O)cccc1C(=O)N[C@@H](Cc1ccccc1)[C@H](O)C(=O)N1CSC2(CCC2)[C@H]1C(=O)N[C@@H]1C=CCCC1 [Example C39, (R)-7-((2S,3S)-2-Hydroxy-3-{[1-(3-hydroxy-2-methyl-phenyl)-methanoyl]-amino}-4-phenyl-butanoyl)-5-thia-7-aza-spiro[3.4]octane-8-carboxylic acid (S)-cyclohex-2-enylamide] | – | 0.013 | < 0.1 | – | 0.000404
C=CCCC(=O)[C@H]1N(C(=O)[C@@H](O)[C@H](Cc2ccccc2)NC(=O)c2cccc(O)c2C)CSC1(C)C [Example D1, N-[(1S,2S)-1-Benzyl-3-((R)-5,5-dimethyl-4-pent-4-enoyl-thiazolidin-3-yl)-2-hydroxy-3-oxo-propyl]-3-hydroxy-2-methyl-benzamide] | – | – | < 0.1 | 0.052 | 0.000601
